The subject of data set [1] is MCF7 breast cancer cell line. Put plainly: Cell metabolic activity / viability (MTT assay) on MCF7.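 For all read-outs here: MTT optical density read-out in human MCF7 cells, normalised to DMSO vehicle-treated cells as 100%, with IC50 derived from fitted concentration–response curves.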 Conditions: for IC50: Homo sapiens, MTT, tested 0 to 500 µM. It counts as cell-based, human.
Experimental: Human skin fibroblasts (HFF-1, CVCL_3285) and human breast cancer MCF7 (HTB-22™, CVCL_0031) were purchased from ATCC and maintained in Dulbecco’s modified Eagle’s medium (DMEM) high glucose (EuroClone, Milan, Italy) supplemented with 10% of fetal bovine serum (FBS) and 1% of penicillin/streptomycin (Gibco—Thermo Fisher Scientific, MD, USA).
Cell metabolic activity of HFF-1 and MCF7 cells was assessed by MTT (3-(4,5-Dimethylthiazol-2-yl)-2,5-Diphenyltetrazolium Bromide) test (Sigma Aldrich, Milan, Italy). […] After the established exposure times, cells were incubated with MTT (0.5 mg/mL) and the optical density was measured as reported elsewhere [63]. Results were expressed as the percentage of cells in the presence of vehicle (DMSO) set as 100% and each experiment was performed in triplicate (n = 3). Concentration–response curves and IC50 were fitted and calculated with GraphPad Prism 5.0 (GraphPad Software, San Diego, CA, USA).
Data set [2] concerns the target T1, human aromatase (Homo sapiens, UniProt P11511).
T1 construct: purchased BioVision, Milpitas, CA, USA
T1 sequence (P11511 1-503): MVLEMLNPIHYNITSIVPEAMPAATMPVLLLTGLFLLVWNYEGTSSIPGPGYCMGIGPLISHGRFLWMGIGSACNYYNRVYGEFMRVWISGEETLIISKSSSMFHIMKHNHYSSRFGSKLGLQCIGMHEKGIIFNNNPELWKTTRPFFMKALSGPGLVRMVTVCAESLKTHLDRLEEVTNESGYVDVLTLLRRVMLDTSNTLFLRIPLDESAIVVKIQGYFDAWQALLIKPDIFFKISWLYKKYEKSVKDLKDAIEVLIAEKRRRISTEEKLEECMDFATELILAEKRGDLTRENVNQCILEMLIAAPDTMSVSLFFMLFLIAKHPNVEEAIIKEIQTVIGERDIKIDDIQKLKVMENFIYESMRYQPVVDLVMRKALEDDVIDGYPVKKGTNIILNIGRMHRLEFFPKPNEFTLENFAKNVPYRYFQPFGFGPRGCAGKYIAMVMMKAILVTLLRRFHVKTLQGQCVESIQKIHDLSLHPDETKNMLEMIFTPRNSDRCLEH
Put plainly: Aromatase inhibition, fluorimetric assay kit (Aromatase-CYP19A Inhibitor Screening kit, BioVision). In kind it is biochemical. The procedure:
The activity was measured each minute for 60 min and the value obtained for each compound after 10 min was chosen to calculate the percentage of the aromatase inhibition.
The aromatase inhibitory activity was determined using a commercial fluorimetric assay kit (Aromatase-CYP19A Inhibitor Screening kit, BioVision, Milpitas, CA, USA), as reported elsewhere. The assay utilizes a fluorogenic aromatase substrate that is converted into a highly fluorescent metabolite detected in the visible range (Ex/Em 488/527 nm). […] During the incubation, the Aromatase Substrate/NADP+ mixture was prepared, and the reaction was started by adding 30 µL of this solution to each well (aside from the background control), reaching a final reaction volume of 100 µL/well. The fluorescence emission (527 nm) was measured immediately (within 1 min) by means of a fluorometer equipped with a 488 nm filter (GloMax®-Multi Detection System, Promega, Madison, WI, USA) and afterwards monitored for 60 min. […] The assay was performed in the same experimental conditions used for the initial screening of compounds. Dose–response curves were fitted with GraphPad Prism 5.0 (GraphPad Software, San Diego, CA, USA).

Data set [3] in a line: Chemical stability by RP-nano-LC at 37 °C. In kind it is physicochemical. Conditions: 72 h, 100 µg/mL; for Chemical stability, basic conditions: 0.1 mM sodium hydroxide solution pH 9, 37 °C; for Chemical stability, acidic conditions: 10 mM hydrochloric acid buffer pH 2.0, 37 °C. The source says: The results were compared with corresponding sulfonamides 2b–c and 2j. […] Advantages including low consumption of mobile and stationary phases and minimal sample volumes make this analytical tool more cost-effective and eco-friendlier with respect to the conventional HPLC. In addition, the reduction in particle diameter and the use of short chromatographic capillary column allow rapid analyses in isocratic elution mode.
Due to the low solubility of some compounds in pure water, the study was performed in an aqueous solution containing ACN/H2O as mobile phase. These conditions led to the chromatographic separation of each compound within 6 min. […] The analyses were performed with a nano-LC apparatus at appropriate intervals for 72 h, maintaining the prepared samples at a temperature of 37 °C.
Detection wavelength was set at 206 nm, and data were collected using ClarityTM Advanced Chromatography Software (Data Apex Ltd., Prague, Czech Republic).
To reduce the flow rate from µ- to nL/min, the HPLC pump delivering MeOH continuously and the injector were connected to a passive split-flow system. For this purpose, both the HPLC pump and injection valve were joined to a stainless-steel T-piece (Vici, Valco, Houston, TX, USA) by means of 500 µm id stainless steel tubes with lengths of 50 and 5 cm, respectively. The third entrance of the T-piece was connected to the MeOH reservoir of the pump through a fused silica capillary (50 µm id × 50 cm), achieving continuous recycling of the organic solvent. To minimize the dead volume and consequently reduce the band broadening effect, the capillary column was directly inserted into the modified injector, which was used for both sample loading and mobile phase reservoir. Samples and mobile phases were introduced into the capillary column through the injection valve by filling the loop with the sample solutions, switching the valve for the appropriate time, and then flushing the loop with the mobile phase. The analysis started immediately after positioning the injector device in the injection mode. […] In the optimized conditions, the flow rate of the column was about 450 nL/min. Nano-LC experiments were performed in uncoated fused silica capillaries (100 μm internal diameter) from Composite Metal Services, Hallow, UK), packed in our laboratory following the slurry packing procedure as described previously. The capillary column was packed with ChromSpher C18, 3 μm particle size (Varian, Palo Alto, CA, USA) for 15 cm.
Chromatographic conditions and standards preparation were as follows: the nano-LC analyses were performed in the capillary column employing as mobile phase a mixture of ACN/H2O ([…]) containing a 10 mM sodium hydrocarbonate buffer, pH 8.5. […]

Each structure is given as a SMILES string. Read-outs that look alike come from different tables or passages of the source.

Broadly, the IC50 is the concentration at which inhibition is half-maximal. The term inhibition denotes the change of the read-out against control, counted positive when it falls. As for `O=S(=O)(Cc1ccccc1)Oc1ccc(/C=C/c2ccccc2)cc1` [1j, 4-[(E)-2-Phenylvinyl]phenyl phenylmethanesulfonate], the IC50 was over 250 µM in data set [1] (MCF7, 24 h, 24 h, read-out: MCF7 Cells IC50 24 h); over 250 µM in data set [1] (MCF7, 72 h, 72 h, read-out: MCF7 Cells IC50 72 h); 2.21 µM in data set [2] (tested at concentrations from 0.01 to 100 μM, mean of triplicate determinations). For the same compound, the “Viability (% of control) - 24 h” value was 85.47 ± 6.41 % of control in data set [1] (MCF7, 10 µM, 24 h); 86.33 ± 14.64 % of control in data set [1] (MCF7, 25 µM, 24 h); 70.06 ± 3.80 % of control in data set [1] (MCF7, 50 µM, 24 h); 74.91 ± 9.24 % of control in data set [1] (MCF7, 100 µM, 24 h); 51.84 ± 3.08 % of control in data set [1] (MCF7, 250 µM, 24 h); 38.88 ± 5.23 % of control in data set [1] (MCF7, 500 µM, 24 h). Besides, the “Viability (% of control) - 72 h” value was 96.53 ± 7.12 % of control in data set [1] (MCF7, 10 µM, 72 h); 95.30 ± 7.88 % of control in data set [1] (MCF7, 25 µM, 72 h); 87.57 ± 5.26 % of control in data set [1] (MCF7, 50 µM, 72 h); 72.67 ± 3.46 % of control in data set [1] (MCF7, 100 µM, 72 h); 69.54 ± 4.11 % of control in data set [1] (MCF7, 250 µM, 72 h); 46.31 ± 4.73 % of control in data set [1] (MCF7, 500 µM, 72 h). In addition, the inhibition at 1 µM in data set [2] turned out to be 100%. The “Chemical stability, basic conditions” value in data set [3] was “highly degraded because of their precipitation in the basic solution”. Moreover, in data set [3], the “Chemical stability, acidic conditions” value is “stable over the entire range of time”.
On to `O=S(=O)(Cc1ccccc1)Nc1ccc(/C=C/c2ccccc2)cc1` [2j, 1-Phenyl-N-{4-[(E)-2-phenylvinyl]phenyl}methanesulfonamide], for which, in data set [3], the “Chemical stability, basic conditions” value is listed as “highly degraded because of their precipitation in the basic solution” and the “Chemical stability, acidic conditions” value is “stable over the entire range of time”.

These data come from paper PMC8537897, “Design, Synthesis and Biological Evaluation of Aromatase Inhibitors Based on Sulfonates and Sulfonamides of Resveratrol” (Pharmaceuticals, 2021).
